From article PMC2690590, “Functional recombinant MHC class II molecules and high-throughput peptide-binding assays” (Immunome Research, 2009)
Where no end group is shown, it is not given here.

Key:
DR3 (DRA*0101/DRB1*0301) = molecular target: T1, DR3 (DRA*0101/DRB1*0301) (Homo sapiens, UniProt P01903+P01911, A100K/A102G/A103R/A169T/F55Y/I96L/K41T/L162R/M171V/P40S/Q125H/Q178H/Q39Y/R42S/S66N/T106N/T262R/W38E/Y61H); experiment: Direct LOCI peptide-MHC-II binding assay, DR3
T1 construct: DRA*01011-181LZFos; DRB1*03011-190LZJunBSP; made in house

DR4 (DRA*0101/DRB1*0401) = molecular target: T2, DR4 (DRA*0101/DRB1*0401) (Homo sapiens, UniProt P01903+P01911, A100K/A169T/F76Y/I96L/K127E/L162R/M171V/N62H/P40V/Q125Y/R42H/S133A/S149N/S66Y/V115G/V209L/W38E); experiment: Direct LOCI peptide-MHC-II binding assay, DR4
T2 construct: DRA*01011-181LZFos; DRB1*04011-190LZJunBSP; made in house

[1] = molecular target: T3, DRB1*0813 (DRA*0101/DRB1*0813) (Homo sapiens, UniProt P01903+P01911, A100R/A103L/A169T/F76Y/H45Y/I96L/K41T/L162R/M171V/P40S/Q125H/Q178H/Q39Y/Q99D/R218S/R42G/S66Y/V115G/W38E); experiment: Direct LOCI peptide-MHC-II binding assay, DRB1*0813
T3 construct: DRA*01011-181LZFos; DRB1*08131-190LZJunBSP; made in house

[2] = molecular target: DP401 (DPA1*0103/DPB1*0401) (Homo sapiens, UniProt P04440+P20036); experiment: Direct LOCI peptide-MHC-II binding assay, DP401
Sequence of DP401 (DPA1*0103/DPB1*0401) (P20036 with tags, fused parts or gaps C154S): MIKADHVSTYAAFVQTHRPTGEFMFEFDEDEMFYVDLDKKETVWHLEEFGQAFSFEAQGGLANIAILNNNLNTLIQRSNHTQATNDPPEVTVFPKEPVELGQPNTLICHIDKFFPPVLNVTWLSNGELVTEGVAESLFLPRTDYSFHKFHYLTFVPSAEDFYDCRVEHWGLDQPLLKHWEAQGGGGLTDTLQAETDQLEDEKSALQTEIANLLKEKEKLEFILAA
Sequence of DP401 (DPA1*0103/DPB1*0401) (as listed by the source): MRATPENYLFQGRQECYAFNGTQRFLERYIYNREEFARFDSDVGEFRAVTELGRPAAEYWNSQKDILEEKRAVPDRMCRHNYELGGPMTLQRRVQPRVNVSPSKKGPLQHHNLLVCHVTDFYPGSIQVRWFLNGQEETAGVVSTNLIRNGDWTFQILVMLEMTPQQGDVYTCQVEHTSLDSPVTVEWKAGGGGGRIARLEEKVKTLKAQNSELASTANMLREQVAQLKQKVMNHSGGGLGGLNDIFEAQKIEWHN

[3] = molecular target: T4, DRB3*0301 (DRA*0101/DRB3*0301) (Homo sapiens, UniProt P01903+P79483, A169T/A212P/D57E/G115V/L67V/Q178H/R103Q/R40L/Y55F); experiment: Direct LOCI peptide-MHC-II binding assay, DRB3*0301
T4 construct: DRA*01011-181LZFos; DRB3*03011-190LZJunBSP; made in house

CSCC[C@H](NC(=O)[C@@H](N)Cc1ccccc1)C(=O)N[C@@H](CO)C(=O)N[C@@H](CCCNC(=N)N)C(=O)N[C@@H](CCCCN)C(=O)N[C@@H](CC(C)C)C(=O)N[C@@H](Cc1c[nH]cn1)C(=O)N[C@@H](CCCNC(=N)N)C(=O)N[C@@H](Cc1ccc(O)cc1)C(=O)O [Hantaan]
Kd (DR3 (DRA*0101/DRB1*0301)): 279 nM | Kd (DR4 (DRA*0101/DRB1*0401)): > 5 µM | Kd [1]: 21 nM | Kd [2]: > 5 µM

WMARRHAER [Brucella]
Kd (DR3 (DRA*0101/DRB1*0301)): > 5000 nM | Kd (DR4 (DRA*0101/DRB1*0401)): > 5 µM | Kd [3]: > 5 µM | Kd [2]: > 5 µM
